# Measurements published in US20150290105A1, “COMPOSITION COMPRISING SYRINGARESINOL FOR IMPROVING THE SKIN” (AMOREPACIFIC CORPORATION, priority 2011, published 2015).
# Legend:
# [1] = Transepidermal water loss (TEWL) in hairless mouse; format: in vivo, hairless mice (SKH: HR-1); conditions: 3 weeks, FIG. 8
# Description: 30-week-old female hairless mice (SKH: HR-1) weighing 25-39 g were purchased from Charles River Laboratories (Wilmington, Mass., USA). The mice were accustomed to the laboratory environment for a week and then grouped into normal groups and test substance-treated groups, with 5 mice per each group. The mice were allowed free access to water and feed under the condition of 12-hour light/dark cycles, 23.2° C. and 55.10% humidity. For the test substance-treated groups, a patch of 1% syringaresinol dissolved in a solvent (1,3-butylene glycol:ethanol=7:3) was applied 2 times for 2 days or 200 mg/kg syringaresinol was orally administered. The control groups were treated in the same way using the solvent of the same amount instead of syringaresinol. […] Before and after the UV radiation, skin wrinkles on the exposed part were taken with replica and measured using the Visiometer system (C+K). 3 weeks after the onset of experiment, transepidermal water loss (TEWL) was measured on the back part of the hairless mouse of each group using a wireless vapometer (Delfin Technologies, Ltd., SWL 4102). […] Transepidermal water loss is the quantity of water that passes from inside the body through the skin and a larger value means poor skin moisturization ability and damaged skin barrier function. […]
# [2] = system: Melanocytes (Mel-Ab cells); assay: Test of cytotoxicity (crystal violet cell viability) in mouse melanocytes; format: cell-based; conditions: 24 hours
# Description: Cytotoxicity was tested for syringaresinol in mouse melanocytes as follows.
# Melanocytes (Mel-Ab cells) derived from C57BL/6 (treated with Dooley et al.'s method) were cultured under the condition of 37° C. and 5% CO2 in Dulbecco's modified Eagle's medium (DMEM) containing 10% fetal bovine serum, 100 nM 12-O-tetradecanoylphorbol-13-acetate and 1 nM cholera toxin. The cultured Mel-Ab cells were detached with 0.25% trypsin-EDTA, cultured in a 24-well plate to a concentration of 10^5 cells/well and then treated with the syringaresinol prepared in Example. After culturing for 24 hours, the cells were washed with phosphate buffered saline (PBS, pH 7.2) and then stained using 0.1% crystal violet (Sigma) and 10% ethanol (EtOH) for 5 minutes at room temperature. After completely removing free crystal violet, the cells were washed 3 times with PBS (pH 7.2). The stained cells were treated with 95% ethanol (EtOH) for 1 hour at room temperature to extract crystal violet. The absorbance of the extract was measured at 540 nm using the Lambda 25 spectrophotometer (PerkinElmer) and cell viability (%) was calculated according to Equation 1.
# Cell viability (%)=(A/B)×100 [Equation 1]
# A: absorbance in the presence of syringaresinol
# B: absorbance in the absence of syringaresinol
# SIRT1 = SIRT1 expression promoting effect in human fibroblasts; format: cell-based; conditions: HDF cells, 20, 50 or 100 μM, 24 hours, FIG. 4
# Description: Human keratinocyte HaCaT cells or human fibroblast HDF cells were cultured under the condition of 37° C. and 5% CO2 in DMEM ((Gibco 1210-0038)) containing 10% fetal bovine serum.
# The cultured cells were treated with syringaresinol dissolved in DMSO at a concentration of 20, 50 or 100 μM for 24 hours. Separately from this, the cells were treated with DMSO of 1/1000 of the volume of the culture medium as a negative control. After treating with the test substance, the cells were washed twice with cold PBS and RNA was extracted using TRIzol reagent (Invitrogen). Then, cDNA was synthesized using 1 μg/μL of the extracted RNA and a reverse transcription system (Promega). The expression pattern of the SIRT1 and GAPDH genes was monitored using the synthesized cDNA and predesigned primers and probes (Applied Biosystems; SIRT1, Hs01009006_ml; GAPDH, Hs99999905_ml). PCR reaction and analysis were carried out using the Rotor-Gene 3000 system (Corbett Research, Sydney, Australia). The result is shown in FIG. 3 (keratinocytes) and FIG. 4 (fibroblasts).
# [3] = system: Melanocytes (Mel-Ab cells); assay: Melanin production inhibiting effect in mouse melanocytes; format: cell-based; conditions: Mel-Ab cells, 3 consecutive days; hydroquinone 10 ppm
# Description: The melanin production inhibiting effect of the syringaresinol obtained in Example was evaluated using mouse melanocytes. First, melanocytes (Mel-Ab cells) derived from C57BL/6 (treated with Dooley et al.'s method) were cultured under the condition of 37° C. and 5% CO2 in Dulbecco's modified Eagle's medium (DMEM) containing 10% fetal bovine serum, 100 nM 12-O-tetradecanoylphorbol-13-acetate and 1 nM cholera toxin. […] After removing the culture medium and washing with PBS, the cells were dissolved with 1 N sodium hydroxide and absorbance was measured at 400 nm. Melanin production inhibiting rate (%) was calculated according to Equation 2 from the measured absorbance. Melanin production inhibiting rate (%)=100−(Absorbance of test substance) /(Absorbance of control substance)×100 [Equation 2]
# [4] = Skin wrinkle formation after UVB in hairless mouse; format: in vivo, hairless mice (SKH: HR-1); conditions: UVB 180 mJ/cm^2
# Description: 30-week-old female hairless mice (SKH: HR-1) weighing 25-39 g were purchased from Charles River Laboratories (Wilmington, Mass., USA). The mice were accustomed to the laboratory environment for a week and then grouped into normal groups and test substance-treated groups, with 5 mice per each group. The mice were allowed free access to water and feed under the condition of 12-hour light/dark cycles, 23.2° C. and 55.10% humidity.
# For the test substance-treated groups, a patch of 1% syringaresinol dissolved in a solvent (1,3-butylene glycol:ethanol=7:3) was applied 2 times for 2 days or 200 mg/kg syringaresinol was orally administered. The control groups were treated in the same way using the solvent of the same amount instead of syringaresinol. The syringaresinol-applied group, syringaresinol oral administration group and control groups were exposed to UVB of 180 mJ/cm^2. Before and after the UV radiation, skin wrinkles on the exposed part were taken with replica and measured using the Visiometer system (C+K).
# Change (%)=[(Tdi−Tdo)/(Tdo)]×100 [Equation 4]
# Tdi: value measured after UV radiation
# Tdo: value measured before UV radiation
# filaggrin = assay: Filaggrin expression promoting effect in human keratinocytes; format: cell-based; conditions: HaCaT cells, FIG. 5
# Description: Human keratinocyte HaCaT cells were cultured in substantially the same manner as in Test Example 10.
# cDNA was synthesized in substantially the same manner as in Test Example 10 and the expression pattern of the filaggrin, involucrin and GAPDH genes was monitored substantially the same manner as in Test Example 10 using the synthesized cDNA and predesigned primers and probes (Applied Biosystems; […]; GAPDH, Hs99999905_ml).
structure (smiles),measurement,setting,value
"COc1cc(C2OCC3C(c4cc(OC)c(O)c(OC)c4)OCC23)cc(OC)c1O (centres unmarked) [Syringaresinol, syringaresinol]",UV-induced transepidermal water loss (TEWL),[1]; application,decrease in UV-induced transepidermal water loss
same,UV-induced transepidermal water loss (TEWL),[1]; oral administration,decrease in UV-induced transepidermal water loss
same,Cell viability (%),[2],98.6%
same,Increase of SIRT1 expression,SIRT1,≥ 4 times
same,Melanin production inhibiting rate (%),[3],85.7%
same,Increase of skin wrinkles (Change %),"[4]; application of 1% patch, control 230±35%",121±35%
same,Increase of skin wrinkles (Change %),"[4]; oral administration 200 mg/kg, control 224±45%",123±25%
same,Expression of filaggrin,filaggrin,increases the expression of filaggrin
